Results taken from ChEMBL document CHEMBL5329199, “Discovery of novel dual Bruton's tyrosine kinase (BTK) and Janus kinase 3 (JAK3) inhibitors as a promising strategy for rheumatoid arthritis” (Bioorg Med Chem, 2023).
Values belong to the compound of their own block, whether it stands above or below them.

Experiments:
[1] = molecular target: T1, Tyrosine-protein kinase JAK3 (Homo sapiens, UniProt P52333); test: Inhibition of JAK3 (unknown origin) preincubated for 10 mins followed by kinase substrate and ATP addition and measured for 30 mins by mobility shift assay
T1 sequence (P52333 whole entry): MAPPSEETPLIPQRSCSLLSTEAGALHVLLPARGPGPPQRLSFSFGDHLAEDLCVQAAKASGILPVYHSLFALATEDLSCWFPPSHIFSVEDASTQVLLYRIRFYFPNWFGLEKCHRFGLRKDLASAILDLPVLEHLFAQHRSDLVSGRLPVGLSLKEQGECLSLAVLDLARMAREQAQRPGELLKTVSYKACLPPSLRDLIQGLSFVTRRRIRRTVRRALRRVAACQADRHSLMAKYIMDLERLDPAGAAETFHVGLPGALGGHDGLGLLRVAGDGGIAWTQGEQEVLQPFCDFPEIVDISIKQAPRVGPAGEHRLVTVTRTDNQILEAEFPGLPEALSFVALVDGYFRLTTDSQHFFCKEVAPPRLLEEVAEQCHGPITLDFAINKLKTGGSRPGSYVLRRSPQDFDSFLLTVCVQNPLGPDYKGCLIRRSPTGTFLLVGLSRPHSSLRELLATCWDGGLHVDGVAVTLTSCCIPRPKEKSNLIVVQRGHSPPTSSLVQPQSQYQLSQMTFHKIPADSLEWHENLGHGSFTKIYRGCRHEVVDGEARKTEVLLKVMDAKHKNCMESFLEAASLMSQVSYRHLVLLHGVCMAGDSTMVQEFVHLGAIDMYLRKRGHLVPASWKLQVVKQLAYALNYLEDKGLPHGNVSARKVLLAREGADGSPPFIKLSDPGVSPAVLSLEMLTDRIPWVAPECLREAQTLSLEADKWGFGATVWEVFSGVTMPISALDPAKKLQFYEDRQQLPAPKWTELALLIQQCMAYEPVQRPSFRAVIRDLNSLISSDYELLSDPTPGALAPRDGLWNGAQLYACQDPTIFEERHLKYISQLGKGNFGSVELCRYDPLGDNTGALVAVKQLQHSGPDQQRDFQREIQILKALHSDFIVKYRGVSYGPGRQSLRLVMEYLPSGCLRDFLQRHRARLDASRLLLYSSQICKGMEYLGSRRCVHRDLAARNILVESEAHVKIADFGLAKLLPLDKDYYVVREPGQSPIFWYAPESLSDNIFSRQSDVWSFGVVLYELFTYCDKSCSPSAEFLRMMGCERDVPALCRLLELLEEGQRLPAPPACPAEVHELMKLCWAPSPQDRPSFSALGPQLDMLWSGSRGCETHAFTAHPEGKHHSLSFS

[2] = molecular target: Tyrosine-protein kinase BTK (Homo sapiens, UniProt Q06187); test: Inhibition of BTK (unknown origin) preincubated for 10 mins followed by kinase substrate and ATP addition and measured for 20 mins by mobility shift assay
Tyrosine-protein kinase BTK, sequence (Q06187 whole entry): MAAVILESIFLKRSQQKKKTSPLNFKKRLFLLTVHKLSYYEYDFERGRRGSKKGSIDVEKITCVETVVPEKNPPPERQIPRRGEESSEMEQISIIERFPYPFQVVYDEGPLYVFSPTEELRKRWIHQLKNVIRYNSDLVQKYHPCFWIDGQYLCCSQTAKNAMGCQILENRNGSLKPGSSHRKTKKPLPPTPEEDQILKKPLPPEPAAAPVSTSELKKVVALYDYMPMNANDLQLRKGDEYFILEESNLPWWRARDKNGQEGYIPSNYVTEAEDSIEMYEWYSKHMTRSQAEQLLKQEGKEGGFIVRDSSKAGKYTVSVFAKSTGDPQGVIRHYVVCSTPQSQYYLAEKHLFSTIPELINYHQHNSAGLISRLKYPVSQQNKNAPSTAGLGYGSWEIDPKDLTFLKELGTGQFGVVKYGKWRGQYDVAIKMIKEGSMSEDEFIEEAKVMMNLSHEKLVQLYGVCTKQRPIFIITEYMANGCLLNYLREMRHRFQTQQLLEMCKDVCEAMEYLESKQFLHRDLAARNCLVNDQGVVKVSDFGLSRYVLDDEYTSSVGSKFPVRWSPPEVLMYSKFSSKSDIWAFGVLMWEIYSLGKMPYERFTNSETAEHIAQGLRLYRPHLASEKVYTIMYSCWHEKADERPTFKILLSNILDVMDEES

[3] = Cytotoxicity against mouse RAW264.7 cells incubated for 12 hrs by MTT assay; format: toxicity, cell-based
[4] = Cytotoxicity against rat NRK cells incubated for 12 hrs by MTT assay; format: toxicity, cell-based
[5] = Cytotoxicity against human L02 cells incubated for 24 hrs by MTT assay; format: toxicity, cell-based
[6] = Cytotoxicity against rat NRK cells incubated for 24 hrs by MTT assay; format: toxicity, cell-based
[7] = molecular target: Voltage-gated inwardly rectifying potassium channel KCNH2 (Homo sapiens, UniProt Q12809); test: Inhibition of human ERG by patch clamp assay
[8] = Cytotoxicity against mouse RAW264.7 cells incubated for 48 hrs by MTT assay; format: toxicity, cell-based
[9] = AUC(all) in Sprague-Dawley rat at 50 mg/kg, po measured for 720 mins by LC/MS analysis; format: ADME, organism-based; set-up: dose 50 mg/kg, time 720 min, route po; conditions: in vivo
[10] = Cytotoxicity against rat NRK cells incubated for 48 hrs by MTT assay; format: toxicity, cell-based
[11] = Observed MRT(infinity) in Sprague-Dawley rat at 50 mg/kg, po measured for 720 mins by LC/MS analysis; format: ADME, organism-based; conditions: in vivo
[12] = system: BaF3; test: Antiproliferative activity against mouse BaF3 cells expressing JAK3 mutant assessed as inhibition of cell growth incubated for 72 hrs by Cell Titer-Glo assay; format: functional, cell-based; conditions: BaF3, 72 h
[13] = Cytotoxicity against mouse RAW264.7 cells incubated for 24 hrs by MTT assay; format: toxicity, cell-based
[14] = molecular target: Tyrosine-protein kinase JAK1 (Homo sapiens, UniProt P23458); test: Inhibition of JAK1 (unknown origin) using kinetic substrate in presence of ATP by mobility shift assay
Tyrosine-protein kinase JAK1, sequence (P23458 whole entry): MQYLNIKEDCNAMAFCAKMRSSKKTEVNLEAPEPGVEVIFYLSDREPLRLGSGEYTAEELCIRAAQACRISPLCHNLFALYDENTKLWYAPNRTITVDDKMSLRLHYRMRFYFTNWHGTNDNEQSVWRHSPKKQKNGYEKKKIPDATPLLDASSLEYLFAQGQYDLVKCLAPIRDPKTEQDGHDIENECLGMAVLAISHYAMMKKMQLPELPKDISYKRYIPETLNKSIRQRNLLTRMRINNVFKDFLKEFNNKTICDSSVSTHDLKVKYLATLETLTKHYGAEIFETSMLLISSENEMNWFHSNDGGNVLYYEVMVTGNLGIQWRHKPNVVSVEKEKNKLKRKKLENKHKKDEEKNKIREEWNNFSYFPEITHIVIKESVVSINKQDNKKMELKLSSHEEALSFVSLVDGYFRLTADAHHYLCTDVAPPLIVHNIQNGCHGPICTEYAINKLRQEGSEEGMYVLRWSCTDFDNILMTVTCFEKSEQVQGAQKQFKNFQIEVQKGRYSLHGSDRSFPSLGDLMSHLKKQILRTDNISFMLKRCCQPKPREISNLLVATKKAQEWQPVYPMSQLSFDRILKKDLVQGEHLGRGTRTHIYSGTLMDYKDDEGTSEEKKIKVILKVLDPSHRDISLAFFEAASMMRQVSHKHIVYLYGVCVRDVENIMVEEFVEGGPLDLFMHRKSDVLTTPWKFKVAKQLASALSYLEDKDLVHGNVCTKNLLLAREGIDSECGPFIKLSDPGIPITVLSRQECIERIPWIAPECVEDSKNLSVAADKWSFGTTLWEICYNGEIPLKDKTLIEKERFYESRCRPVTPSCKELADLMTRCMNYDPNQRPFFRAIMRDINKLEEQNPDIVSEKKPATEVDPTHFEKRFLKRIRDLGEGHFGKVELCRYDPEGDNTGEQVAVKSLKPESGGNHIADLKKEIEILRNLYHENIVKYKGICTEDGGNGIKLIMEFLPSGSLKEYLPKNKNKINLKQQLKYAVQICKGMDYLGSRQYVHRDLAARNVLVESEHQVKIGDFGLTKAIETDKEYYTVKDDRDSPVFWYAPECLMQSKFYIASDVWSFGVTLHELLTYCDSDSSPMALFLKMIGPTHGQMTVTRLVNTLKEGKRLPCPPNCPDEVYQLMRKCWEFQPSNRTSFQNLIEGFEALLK

[15] = Oral bioavailability in Sprague-Dawley rat at 50 mg/kg measured for 720 mins by LC/MS analysis; format: ADME, organism-based; conditions: in vivo
[16] = Cytotoxicity against HUVEC cells incubated for 48 hrs by MTT assay; format: toxicity, cell-based; conditions: human
[17] = AUC(all) in Sprague-Dawley rat at 5 mg/kg, iv measured for 720 mins by LC/MS analysis; format: ADME, organism-based; set-up: time 720 min, dose 5 mg/kg, route iv; conditions: in vivo
[18] = Cytotoxicity against HUVEC cells incubated for 12 hrs by MTT assay; format: toxicity, cell-based; conditions: human
[19] = Acute toxicity in po dosed ICR mouse assessed as minimum lethal dose measured for 7 days; format: organism-based; conditions: in vivo, 168 h, time 7 day
[20] = Observed MRT(infinity) in Sprague-Dawley rat at 5 mg/kg, iv measured for 720 mins by LC/MS analysis; format: ADME, organism-based; conditions: in vivo
[21] = molecular target: Non-receptor tyrosine-protein kinase TYK2 (Homo sapiens, UniProt P29597); test: Inhibition of TYK2 (unknown origin) using kinetic substrate in presence of ATP by mobility shift assay
Non-receptor tyrosine-protein kinase TYK2, sequence (P29597 whole entry): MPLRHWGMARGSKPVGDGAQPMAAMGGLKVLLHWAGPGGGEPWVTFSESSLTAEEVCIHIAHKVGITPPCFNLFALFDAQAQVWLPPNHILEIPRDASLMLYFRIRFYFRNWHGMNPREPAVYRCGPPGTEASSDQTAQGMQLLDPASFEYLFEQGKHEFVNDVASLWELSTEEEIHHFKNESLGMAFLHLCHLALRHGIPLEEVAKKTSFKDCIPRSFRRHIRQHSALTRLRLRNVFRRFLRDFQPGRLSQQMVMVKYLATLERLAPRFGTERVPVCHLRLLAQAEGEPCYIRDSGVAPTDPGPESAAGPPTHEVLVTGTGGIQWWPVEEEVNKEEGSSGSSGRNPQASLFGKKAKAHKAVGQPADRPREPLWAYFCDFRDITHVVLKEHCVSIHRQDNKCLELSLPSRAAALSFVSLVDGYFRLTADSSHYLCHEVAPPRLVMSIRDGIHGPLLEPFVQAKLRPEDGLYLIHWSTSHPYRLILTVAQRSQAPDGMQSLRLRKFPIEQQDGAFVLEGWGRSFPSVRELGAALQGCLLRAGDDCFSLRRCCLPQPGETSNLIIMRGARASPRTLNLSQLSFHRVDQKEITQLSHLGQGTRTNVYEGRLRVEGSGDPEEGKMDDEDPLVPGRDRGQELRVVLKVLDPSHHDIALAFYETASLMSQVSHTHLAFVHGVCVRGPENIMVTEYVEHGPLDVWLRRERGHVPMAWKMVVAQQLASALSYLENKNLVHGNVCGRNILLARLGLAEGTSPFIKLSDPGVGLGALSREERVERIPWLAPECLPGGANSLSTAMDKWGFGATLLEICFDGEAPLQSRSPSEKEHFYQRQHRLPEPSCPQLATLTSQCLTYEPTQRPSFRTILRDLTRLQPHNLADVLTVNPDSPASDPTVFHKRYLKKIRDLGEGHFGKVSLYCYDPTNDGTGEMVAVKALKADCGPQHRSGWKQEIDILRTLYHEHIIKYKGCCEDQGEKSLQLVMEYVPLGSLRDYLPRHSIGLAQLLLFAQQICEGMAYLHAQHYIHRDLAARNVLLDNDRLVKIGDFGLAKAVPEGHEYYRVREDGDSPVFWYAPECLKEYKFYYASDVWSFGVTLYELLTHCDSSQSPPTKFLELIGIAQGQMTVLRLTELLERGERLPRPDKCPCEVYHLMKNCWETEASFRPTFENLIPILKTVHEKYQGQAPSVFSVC

[22] = Half life in Sprague-Dawley rat at 50 mg/kg, po by LC/MS analysis; format: ADME, organism-based; conditions: in vivo
[23] = system: Daudi; test: Antiproliferative activity against human Daudi cells assessed as inhibition of cell growth incubated for 72 hrs by Cell Titer-Glo assay; format: functional, cell-based
[24] = Tmax in Sprague-Dawley rat at 50 mg/kg, po by LC/MS analysis; format: ADME, organism-based; conditions: in vivo
[25] = Cytotoxicity against human L02 cells incubated for 12 hrs by MTT assay; format: toxicity, cell-based
[26] = Cmax in Sprague-Dawley rat at 50 mg/kg, po measured for 720 mins by LC/MS analysis; format: ADME, organism-based; set-up: dose 50 mg/kg, time 720 min, route po; conditions: in vivo
[27] = molecular target: Tyrosine-protein kinase JAK2 (Homo sapiens, UniProt O60674); test: Inhibition of JAK2 (unknown origin) using kinetic substrate in presence of ATP by mobility shift assay
Tyrosine-protein kinase JAK2, sequence (O60674 whole entry): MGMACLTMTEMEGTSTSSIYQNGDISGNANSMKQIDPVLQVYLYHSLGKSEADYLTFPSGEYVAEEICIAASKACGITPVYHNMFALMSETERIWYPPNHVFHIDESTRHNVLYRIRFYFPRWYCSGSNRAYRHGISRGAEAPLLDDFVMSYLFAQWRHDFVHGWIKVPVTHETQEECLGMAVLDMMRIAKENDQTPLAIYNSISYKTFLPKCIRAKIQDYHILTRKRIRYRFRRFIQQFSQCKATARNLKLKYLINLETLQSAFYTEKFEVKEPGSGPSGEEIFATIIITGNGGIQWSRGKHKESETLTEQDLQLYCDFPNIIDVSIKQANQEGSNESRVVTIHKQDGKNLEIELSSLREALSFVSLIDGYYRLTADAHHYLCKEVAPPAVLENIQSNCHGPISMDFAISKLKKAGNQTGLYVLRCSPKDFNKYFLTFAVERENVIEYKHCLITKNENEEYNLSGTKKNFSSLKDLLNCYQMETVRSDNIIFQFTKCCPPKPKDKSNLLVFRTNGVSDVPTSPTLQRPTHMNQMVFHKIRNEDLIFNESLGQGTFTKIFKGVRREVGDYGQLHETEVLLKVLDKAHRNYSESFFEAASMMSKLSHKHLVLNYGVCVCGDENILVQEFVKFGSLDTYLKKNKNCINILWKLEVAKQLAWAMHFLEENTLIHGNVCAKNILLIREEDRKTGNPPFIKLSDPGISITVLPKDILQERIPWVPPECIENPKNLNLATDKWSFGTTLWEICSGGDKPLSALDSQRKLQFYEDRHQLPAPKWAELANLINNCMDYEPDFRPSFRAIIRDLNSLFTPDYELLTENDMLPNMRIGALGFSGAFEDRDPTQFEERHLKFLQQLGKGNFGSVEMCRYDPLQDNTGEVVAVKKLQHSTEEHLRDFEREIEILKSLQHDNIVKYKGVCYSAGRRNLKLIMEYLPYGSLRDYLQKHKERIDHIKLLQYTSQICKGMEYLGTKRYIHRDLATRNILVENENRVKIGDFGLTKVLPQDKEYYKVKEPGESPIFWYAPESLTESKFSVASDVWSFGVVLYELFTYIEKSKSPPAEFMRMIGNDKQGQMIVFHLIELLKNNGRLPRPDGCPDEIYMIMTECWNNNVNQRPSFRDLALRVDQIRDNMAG

[28] = Cytotoxicity against HUVEC cells incubated for 24 hrs by MTT assay; format: toxicity, cell-based; conditions: human
[29] = Cytotoxicity against human L02 cells incubated for 48 hrs by MTT assay; format: toxicity, cell-based

Structure (SMILES): C=CC(=O)N1CCC[C@@H](n2nc(-c3ccc(NC(=O)c4ccccc4)c4c3OCO4)c3c(N)ncnc32)C1
- IC50 [1]: 73 nM
- IC50 [2]: 1.3 nM

Structure (SMILES): C=CC(=O)N1CCC[C@@H](n2nc(-c3ccc(NC(=O)c4ccccn4)c4c3OCO4)c3c(N)ncnc32)C1
- IC50 [1]: 70 nM
- IC50 [2]: 1.4 nM

Structure (SMILES): C=CC(=O)N1CCC[C@@H](n2nc(-c3ccc(NC(=O)c4ccccc4Cl)c4c3OCO4)c3c(N)ncnc32)C1
- IC50 [1]: 106 nM
- IC50 [2]: 2 nM

Structure (SMILES): CCC(=O)N1CCC[C@@H](n2nc(-c3ccc(NC(=O)c4ccccc4)c4c3OCO4)c3c(N)ncnc32)C1
- IC50 [1]: > 10000 nM
- IC50 [2]: 46 nM

Structure (SMILES): N#CCC(=O)N1CCC[C@@H](n2nc(-c3ccc(NC(=O)c4ccccc4)c4c3OCO4)c3c(N)ncnc32)C1
- IC50 [1]: > 10000 nM
- IC50 [2]: 60 nM

Structure (SMILES): C=CC(=O)N1CCC[C@@H]1Cn1nc(-c2ccc(NC(=O)c3ccc(N(C)C)cc3)c3c2OCO3)c2c(N)ncnc21
- IC50 [1]: 645 nM
- IC50 [2]: 6 nM

Structure (SMILES): C=CC(=O)N1CCC[C@@H](n2nc(-c3ccc(NC(=O)c4ccc(N(C)C)cc4)c4c3OCO4)c3c(N)ncnc32)C1
- IC50 at 12 h [3]: 60800 nM
- IC50 at 12 h [4]: 51000 nM
- IC50 at 24 h [5]: 28200 nM
- IC50 at 24 h [6]: 15700 nM
- IC50 [7]: 14800 nM
- IC50 at 48 h [8]: 19700 nM
- AUC at 12 h [9]: 437 ng·h/mL
- IC50 at 48 h [10]: 11800 nM
- IC50 [1]: 14 nM
- MRT inf [11]: 3.4 h
- IC50 [12]: 366 nM
- IC50 at 24 h [13]: 50600 nM
- IC50 [14]: > 10000 nM
- bioavailability [15]: 13.2%
- IC50 at 48 h [16]: 27300 nM
- AUC at 12 h [17]: 299 ng·h/mL
- IC50 at 12 h [18]: 50000 nM
- MLD [19]: > 1600 mg/kg
- MRT inf [20]: 9.36 min
- IC50 [21]: > 10000 nM
- half-life [22]: 2.57 h
- IC50 [23]: 690 nM
- Tmax [24]: 0.459 h
- IC50 at 12 h [25]: 69900 nM
- IC50 [2]: 2 nM
- Cmax [26]: 209 ng/mL
- IC50 [27]: > 10000 nM
- IC50 at 24 h [28]: 40600 nM
- IC50 at 48 h [29]: 9610 nM

Structure (SMILES): C=CC(=O)N1CCC[C@@H](n2nc(-c3ccc(NC(=O)c4cccc(N(C)C)c4)c4c3OCO4)c3c(N)ncnc32)C1
- IC50 [1]: 97 nM
- IC50 [2]: 1.02 nM

Structure (SMILES): C=CC(=O)N1CCC[C@@H](n2nc(-c3ccc(NC(=O)c4ccc(F)cc4)c4c3OCO4)c3c(N)ncnc32)C1
- IC50 [1]: 176 nM
- IC50 [2]: 0.9 nM

More lines, in order of falling IC50 [1], values ahead:

- IC50 [1]: 61 nM
- IC50 [2]: 1.7 nM
Structure (SMILES): C=CC(=O)N1CCC[C@@H](n2nc(-c3ccc(NC(=O)c4cccs4)c4c3OCO4)c3c(N)ncnc32)C1

- IC50 [1]: 44 nM
- IC50 [2]: 1.8 nM
Structure (SMILES): C=CC(=O)N1CCC[C@@H](n2nc(-c3ccc(NC(=O)c4cccc(Cl)c4)c4c3OCO4)c3c(N)ncnc32)C1

- IC50 [1]: 44 nM
- IC50 [2]: 1.5 nM
Structure (SMILES): C=CC(=O)N1CCC[C@@H](n2nc(-c3ccc(NC(=O)c4ccc(OC)cc4)c4c3OCO4)c3c(N)ncnc32)C1

- IC50 [1]: 37 nM
- IC50 [2]: 2.7 nM
Structure (SMILES): C=CC(=O)N1CCC[C@@H](n2nc(-c3ccc(NC(=O)c4ccc(C(C)(C)C)cc4)c4c3OCO4)c3c(N)ncnc32)C1

- IC50 [1]: 35 nM
- IC50 [2]: 1.9 nM
Structure (SMILES): C=CC(=O)N1CCC[C@@H](n2nc(-c3ccc(NC(=O)c4cccc5c4CCCC5)c4c3OCO4)c3c(N)ncnc32)C1

- IC50 [1]: 30 nM
- IC50 [2]: 2.4 nM
Structure (SMILES): C=CC(=O)N1CCC[C@@H](n2nc(-c3ccc(NC(=O)c4sc5ccccc5c4Cl)c4c3OCO4)c3c(N)ncnc32)C1

- IC50 [1]: 27 nM
- IC50 [2]: 2.2 nM
Structure (SMILES): C=CC(=O)N1CCC[C@@H](n2nc(-c3ccc(NC(=O)c4ccc(N(CC)CC)cc4)c4c3OCO4)c3c(N)ncnc32)C1
